In PubChem BioAssay AID2305 (GlaxoSmithKline (GSK), 2010) one finds IC50 data, which are given here for 44 compounds.

In the experiment the test system is P. falciparum 3D7 growth, pLDH absorbance. Nature of the experiment: P. falciparum 3D7 growth inhibition, dose response, strain 3D7 (AID 2305).

On to `COc1ccccc1C1CCN(CCCCNC(=O)c2ccc(NC(=O)c3ccc(Cl)cc3)cc2)CC1`, for which the IC50 (as a rule, the concentration that gives 50% inhibition) was found to be 240 nM. That is a sub-micromolar value.

With `CN(Cc1ccccc1)C1CCCN(c2cc(NC(=O)c3ccc(F)cc3)ccn2)C1` (centres undefined), the IC50 was determined as 990 nM.

For `Nc1c(Cl)cc(C(O)CNCCCCCOCCCc2ccc3ncccc3c2)cc1Cl` (centres undefined), the IC50 turned out to be 980 nM. The IC50 values of the last two compounds are within 1.5-fold of each other. For `CO/C(=C\C=C\c1cc2cc(Cl)c(Cl)cc2[nH]1)C(=O)NCCCNC12CC3CC(CC(C3)C1)C2` the value was 730 nM; for `Cc1noc(C)c1CN1Cc2ccccc2OC2(CCN(Cc3c[nH]c4cnccc34)CC2)C1`, 1070 nM.

In turn, `C#CCN1CCC2=C(C1)c1c(O)cc(C(C)CCCc3ccc(F)cc3)cc1OC2(C)C` (centres undefined) yielded an IC50 of 730 nM. For `c1cncc(CCNCc2ccc(-c3cccc(-c4nc5ccccc5[nH]4)c3)cc2)c1` the value was 160 nM; for `COc1ccc(-c2cnc3ccc(NCc4ccc(S(N)(=O)=O)cc4)nn23)cn1`, 870 nM; for `CN(CCN1CCCC1)c1nc2ccc(-n3cnc4cc(-c5ccc(Cl)cc5)sc4c3=O)cc2[nH]1`, 820 nM.

`CC(=O)Nc1ccc(CN2CCC(N(C)c3cc(NC(=O)c4cccc(F)c4)ccn3)CC2)cc1` gave an IC50 of 1380 nM. For `CCc1nc(N)nc(N)c1-c1ccccc1` the value was 1180 nM; for `CCN(CC)C(=O)C1CCCN(c2cc(C)nc(Nc3ccc(Cl)cc3)n2)C1` (centres undefined), 720 nM; for `Cc1c(CN2CCC(N3CCC(C(=O)NC4CC4)CC3)CC2)[nH]c2c(Cl)cccc12`, 1190 nM. For `Cc1ccc(Nc2nccc(NCC(O)c3ccc(C(F)(F)F)cc3)n2)cc1` (centres undefined) the value was 490 nM; for `CN(C)S(=O)(=O)c1ccc(Nc2nc(NCCC3C=NC=N3)nc3cc[nH]c(=O)c23)cc1` (centres undefined), 930 nM. For `COc1cc2nc(Nc3ccc4c(c3)OCCO4)nc(N)c2cc1OC` the value was 470 nM; for `CC(C)C[C@@H](/C=N/N1CCNC1=O)NC(=O)[C@H](CC(C)C)NC(=O)c1ccc(OCCN2CCOCC2)cc1`, 190 nM.

Compound `COc1c(C2CCN(CCCCNC(=O)c3ccc(-c4ccc(Cl)cc4)cc3)CC2)ccc2c1C(C)(C)CCC2(C)C` had an IC50 of 780 nM. `COC(=O)c1cc(/C(C)=N/Nc2nc3ccccc3[nH]2)ccc1O` displayed an IC50 of 680 nM. This IC50 and that of the compound before are within 1.5-fold of each other. As to `O=C1CCCN1CCCNCc1cccc(-c2cccc(-c3nc4ccc(C(F)(F)F)cc4[nH]3)c2)c1`, the IC50 stood at 300 nM. For `N#Cc1ccc(N2CCN(Cc3cccc(-c4ccc(-c5nc6ccccc6[nH]5)cc4)c3)CC2)nc1` the value was 1240 nM. Turning to `CCCC(C)Nc1nc(C)cc(N[C@@H](Cc2ccccc2)C(=O)NCc2ccc(C)cc2)n1` (some centres undefined), the IC50 was 1120 nM.

On to `CCN(CCNS(C)(=O)=O)c1ccc(N)c(C)c1`, for which the IC50 was 880 nM.

With `Cc1c(OC(C)C)nc2ccccc2c1C(=O)N[C@H](c1cccc(F)c1)C1CC1`, the IC50 worked out at 1090 nM. For `Cn1c(NCc2cc(F)cc3c2OCOC3)nc2cc(Nc3ccnc(Nc4cccc(CS(C)(=O)=O)c4)n3)ccc21` the value was 150 nM. The value for `COc1c(C2CCN(CCCCNC(=O)c3ccc(C)c(-c4ccc(C(F)(F)F)cc4)c3)CC2)ccc2c1CCCC2` was 880 nM. For `Cc1noc(-c2cccs2)c1C(=O)NCCc1cccc(Cl)c1` the value was 460 nM.

Compound `COc1cccc(C(=O)NC(C=Cc2ccccc2)c2cc(Cl)c3cccnc3c2O)c1` (centres undefined) yielded an IC50 of 860 nM. For `O=C(Nc1ccncc1)c1cn(-c2ccccc2)nc1-c1cccs1` the value was 980 nM; for `COc1cc2nc(N3CCN(c4nc(N)c5cc(OC)c(OC)cc5n4)CC3)nc(N)c2cc1OC`, 150 nM. The value for `CCOC(=O)c1cccc(NC(=O)Nc2cc(C)nc3ccccc23)c1` was 290 nM; that for `O=C(NCCN1CCCC1)N1CCCN(c2ncnc3cc(-c4ccc(Cl)cc4)sc23)CC1` was 920 nM; that for `Cc1[nH]c(C)c(-c2ccc(-c3ccc(Cl)cc3)cc2)c(=O)c1Cl` was 210 nM.

Consider `O=C(Nc1cccc(-c2cccc(-c3nc4ccc(C(F)(F)F)cc4[nH]3)c2)c1)c1csnn1`, for which the IC50 came out at 240 nM. The value for `Nc1nc(N)c2c(ccc3c2ccn3Cc2ccc(F)cc2)n1` was 10 nM; that for `COc1ccc(C2C(C(=O)Nc3cc(C)ccc3OC)c3ccccc3C(=O)N2C)cc1` (centres undefined) was 980 nM. In turn, `N#Cc1cccc(Nc2nccc(NCC(O)c3ccccc3C(F)(F)F)n2)c1` (centres undefined) showed an IC50 of 830 nM.

`CCCCCCSc1nnc(COc2cccc3ccccc23)n1-c1ccc(OC)cc1` yielded an IC50 of 50 nM.

Consider `Cc1ccc(CN=C(N)NC(=O)c2nc(Cl)c(NCc3ccc(Cl)cc3)nc2N)c(C)c1`, for which the half-maximal inhibitory concentration (IC50) stood at 170 nM.

`NS(=O)(=O)c1cccc(-c2ccc3c(=O)[nH]cnc3c2)c1`: the IC50 was 950 nM. For `NC(=O)c1ccc(-n2cnc3cc(F)ccc32)cc1OCc1ccccc1C(F)(F)F` (tested in a mixture with another compound) the value was 360 nM; for `Cc1ccc(C)c(Cn2ccc3nc(N)nc(N)c32)c1`, 300 nM. The value for `O=C(C=Cc1ccc(Cl)c(Cl)c1)NCCCCCN1CCCC(CCCNC(=O)/C=C/c2ccccc2)C1` (centres undefined) was 590 nM. The value for `COc1ccc2nccc([C@@H](O)CN3CCC(NS(=O)(=O)c4cc5c(cc4Cl)SCC(=O)N5)CC3)c2c1` was 980 nM.
